Measured values taken from US11478451B1, “Macrocyclic chlorine substituted indole derivatives” (Bayer Aktiengesellschaft, priority 2017, dated 2022).
Structures can show the parent of a compound that is named as a salt. Where two headings read alike, the source gives them in different places.

Experiments:
AMO-1 cells = experiment: Antiproliferation assay (CellTiter-Glo, 72 h), AMO-1; type: cell-based; details: IC50, median, AMO-1, 72 h, read-out: Antiproli AMO-1 [M] median
Summary of the method: (§1)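 Luminescent ATP-based viability (CellTiter-Glo) measured after 72 h of compound treatment at 37 °C. A day 0 plate recorded at time zero served as the starting reference for proliferation.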

SUDHL10 cells [1] = experiment: Induction of cytotoxicity (CellTiter-Glo, 5 h), SUDHL10; details: SUDHL10, 5 h
SUDHL5 cells [2] = experiment: Induction of caspase-3/7 activity (Caspase-Glo 3/7), SUDHL5; type: cell-based; details: EC50, median, SUDHL5, 3 h treatment
Summary of the method: (§2)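 Steps: seed the diffuse large B-cell lymphoma cells, leaving rim wells unused; add compounds; incubate 3 h at 37 °C; add Caspase-Glo 3/7 reagent; read; subtract medium-only background.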

MV-4-11 cells = experiment: Antiproliferation assay (CellTiter-Glo, 72 h), MV-4-11; type: cell-based; details: IC50, median, MV-4-11, 72 h, read-out: Antiproli MV-4-11 [M] median
Method: (§3) Assessment of the Anti-Proliferative Effect of Compounds in Different Cell Lines
(§4) The impact of compounds on the proliferation of different cell lines was assessed using the CellTiter-Glo® Luminescent Cell Viability reagent from Promega (G7573).
(§5) In parallel, cells were plated in a reference (day 0) plate for time zero determination.
(§6) Rim wells were excluded. The cells were incubated for 72 h hours in a humidified incubator at 37° C. The day 0 plate was measured by adding 30 μL/well of CTG solution (CellTiter-Glo® Luminescent Cell Viability reagent, Promega G7573) to time zero wells in the reference plate followed by a 10 minutes incubation and luminescence reading at 0.1 ms. using the PHERAstar FS microplate reader (BMG Labtech).
(§7) After 72 h incubation, the treated plates were measured in the same way as the day 0 plate mentioned above.

HMC-1-8 cells = experiment: Antiproliferation assay (CellTiter-Glo, 72 h), HMC-1-8; type: cell-based; details: IC50, median, HMC-1-8, 72 h, read-out: Antiproli HMC-1-8 [M] median
Summary of the method: as §1

A2058 cells = experiment: Antiproliferation assay (CellTiter-Glo, 72 h), A2058; type: cell-based; details: A2058, 72 h, read-out: Antiproli A2058 [M] median
Method: as §3, §4, §5, §6, §7

SUDHL5 cells [3] = experiment: Induction of cytotoxicity (CellTiter-Glo, 5 h), SUDHL5; details: SUDHL5, 5 h
SUDHL10 cells [4] = experiment: Induction of caspase-3/7 activity (Caspase-Glo 3/7), SUDHL10; type: cell-based; details: EC50, median, SUDHL10, 3 h treatment
Summary of the method: as §2

SK-BR-3 cells = experiment: Antiproliferation assay (CellTiter-Glo, 72 h), SK-BR-3; type: cell-based; details: SK-BR-3, 72 h, IC50, median, read-out: Antiproli SK-BR-3 [M] median
Method: as §3, §4, §5, §6, §7

SUDHL5 cells [5] = experiment: Antiproliferation assay (CellTiter-Glo, 72 h), SUDHL5; type: cell-based; details: IC50, median, SUDHL5, 72 h, read-out: Antiproli SUDHL5 [M] (median)
Summary of the method: as §1

NCI-H23 cells = experiment: Antiproliferation assay (CellTiter-Glo, 72 h), NCI-H23; type: cell-based; details: NCI-H23, 72 h, read-out: Antiproli NCI-H23 [M] median
Method: as §3, §4, §5, §6, §7

SUDHL10 cells [6] = experiment: Antiproliferation assay (CellTiter-Glo, 72 h), SUDHL10; type: cell-based; details: IC50, median, SUDHL10, 72 h, read-out: Antiproli SUDHL10 [M] (median)
Method: as §3, §4, §5, §6, §7

T47D cells = experiment: Antiproliferation assay (CellTiter-Glo, 72 h), T47D; type: cell-based; details: IC50, median, T47D (head printed T4713), read-out: Antiproli T4713 [M] median
Method: as §3, §4, §5, §6, §7

SNU-389 cells = experiment: Antiproliferation assay (CellTiter-Glo, 72 h), SNU-389; type: cell-based; details: IC50, median; SNU-389, 72 h; read-out: Antiproli SNU-389 [M] median
Summary of the method: as §1

DMS-114 cells = experiment: Antiproliferation assay (CellTiter-Glo, 72 h), DMS-114; type: cell-based; details: IC50, median; DMS-114, 72 h; read-out: Antiproli DMS-114 [M] median
Summary of the method: as §1

[7] = the molecule shown is the open-chain precursor; crosslinker bond; 11-membered ring; (Z)-1,4-dichlorobut-2-ene/Cs2CO3/NaI; MeCN; 77.0 mM; […]
[8] = Homo sapiens, SU-DHL10, 5 h, read-out: Cytotox SUDHL10 [M] (median), IC50, median
[9] = read-out: Cytotox SUDHL10 [M] (median), IC50, median
[10] = read-out: Cytotox SUDHL5 [M] (median), IC50, median

**Q.** With `Cc1c2c(nn1C)COCCCCn1c(C(=O)O)c(CCCOc3cccc4ccccc34)c3ccc(Cl)c-2c31` (racemic) [Example 25, (rac)-4-chloro-2,3-dimethyl-7-[3-(naphthalen-1-yloxy)propyl]-2,10,11,12,13,15-hexahydropyrazolo[4′,3′:9,10][1,6]oxazacycloundecino[8,7,6-hi]indole-8-carboxylic acid] as the compound, how does the IC50 (AMO-1 cells; Homo sapiens, AMO1, 72 h) read?
**A.** 1.3e-06 M

**Q.** And the IC50 (SUDHL10 cells [1]; [8])?
**A.** 9.3e-07 M

**Q.** And the EC50 (SUDHL5 cells [2]; Homo sapiens, SU-DHL-5, 3 h)?
**A.** 390 nM

**Q.** And the IC50 (MV-4-11 cells; Homo sapiens, MV4-11, 72 h)?
**A.** 2.78e-06 M

**Q.** What about the IC50 (HMC-1-8 cells; 72 h) of the same compound?
**A.** 6.5e-06 M

**Q.** What about the IC50 (A2058 cells; Homo sapiens) of the same compound?
**A.** 2.19e-05 M

**Q.** And the IC50 (SUDHL5 cells [3]; Homo sapiens, SU-DHL-5, 5 h, read-out: Cytotox SUDHL5 [M] (median), IC50, median)?
**A.** 5.3e-07 M

**Q.** What about the EC50 (SUDHL10 cells [4]; Homo sapiens, SU-DHL10, 3 h) of the same compound?
**A.** 1200 nM

**Q.** And the IC50 (SK-BR-3 cells; Homo sapiens)?
**A.** 1.29e-05 M

**Q.** And the IC50 (SUDHL5 cells [5]; Homo sapiens, SU-DHL-5, 72 h)?
**A.** 5.6e-07 M

**Q.** And the IC50 (NCI-H23 cells; Homo sapiens)?
**A.** 6.01e-06 M

**Q.** With `CCc1nn(CCN2CCOCC2)c2c1-c1c(Cl)ccc3c(CCCOc4cccc5ccccc45)c(C(=O)O)n(c13)CCCCOC2` (single isomer, unassigned; enantiomer 1) [Example 9, 4-chloro-3-ethyl-1-[2-(morpholin-4-yl)ethyl]-7-[3-(naphthalen-1-yloxy)propyl]-1,10,11,12,13,15-hexahydropyrazolo[4′,3′:9,10][1,6]oxazacycloundecino[8,7,6-hi]indole-8-carboxylic acid-N-ethylethanamine salt (Enantiomer 1)] as the compound, how does the IC50 (AMO-1 cells) read?
**A.** 8.7e-07 M

**Q.** What about the IC50 (SUDHL10 cells [6]; Homo sapiens, SU-DHL10, 72 h) of the same compound?
**A.** 2.7e-07 M

**Q.** What about the IC50 (SUDHL10 cells [1]; [9]) of the same compound?
**A.** 3.4e-07 M

**Q.** And the EC50 (SUDHL5 cells [2])?
**A.** 270 nM

**Q.** And the IC50 (MV-4-11 cells)?
**A.** 8.23e-07 M

**Q.** And the IC50 (SUDHL5 cells [3]; [10])?
**A.** 2.9e-07 M

**Q.** What about the EC50 (SUDHL10 cells [4]) of the same compound?
**A.** 330 nM

**Q.** What about the IC50 (SK-BR-3 cells) of the same compound?
**A.** 1.08e-06 M

**Q.** And the IC50 (SUDHL5 cells [5])?
**A.** 3.7e-07 M

**Q.** With `Cc1c2c(nn1C)COCCCCn1c(C(=O)O)c(CCCOc3cccc4cc(F)ccc34)c3ccc(Cl)c-2c31` (single isomer, unassigned; enantiomer 1) [Example 15, (+)-4-chloro-7-{3-[(6-fluoronaphthalen-1-yl)oxy]propyl}-2,3-dimethyl-2,10,11,12,13,15-hexahydropyrazolo[4′,3′:9,10][1,6]oxazacycloundecino[8,7,6-hi]indole-8-carboxylic acid-N-ethylethanamine salt (Enantiomer 1)] as the compound, how does the IC50 (T47D cells) read?
**A.** 1.19e-05 M

**Q.** What about the IC50 (AMO-1 cells) of the same compound?
**A.** 5.3e-07 M

**Q.** And the IC50 (SUDHL10 cells [6])?
**A.** 2e-07 M

**Q.** What about the IC50 (SUDHL10 cells [1]; [9]) of the same compound?
**A.** 2.3e-07 M

**Q.** What about the EC50 (SUDHL5 cells [2]) of the same compound?
**A.** 120 nM

**Q.** And the IC50 (SNU-389 cells)?
**A.** 9.28e-07 M

**Q.** What about the IC50 (MV-4-11 cells) of the same compound?
**A.** 4.61e-07 M

**Q.** What about the IC50 (HMC-1-8 cells) of the same compound?
**A.** 1.4e-06 M

**Q.** And the IC50 (A2058 cells; IC50, median)?
**A.** 5.86e-06 M

**Q.** What about the IC50 (SUDHL5 cells [3]; [10]) of the same compound?
**A.** 1.4e-07 M

**Q.** And the EC50 (SUDHL10 cells [4])?
**A.** 150 nM

**Q.** And the IC50 (DMS-114 cells)?
**A.** 6.42e-07 M

**Q.** What about the IC50 (SUDHL5 cells [5]) of the same compound?
**A.** 1.9e-07 M

**Q.** With `CCc1nn(CCN2CCOCC2)c2c1-c1c(Cl)ccc3c(CCCOc4cccc5ccccc45)c(C(=O)O)n(c13)CCCCOC2` (racemic) [Example 8, (rac)-4-chloro-3-ethyl-1-[2-(morpholin-4-yl)ethyl]-7-[3-(naphthalen-1-yloxy)propyl]-1,10,11,12,13,15-hexahydropyrazolo[4′,3′:9,10][1,6]oxazacycloundecino[8,7,6-hi]indole-8-carboxylic acid] as the compound, how does the IC50 (SUDHL10 cells [1]; [8]) read?
**A.** 4.5e-07 M

**Q.** And the EC50 (SUDHL5 cells [2])?
**A.** 290 nM

**Q.** And the IC50 (MV-4-11 cells)?
**A.** 1.1e-06 M

**Q.** What about the IC50 (SUDHL5 cells [3]; [10]) of the same compound?
**A.** 3.5e-07 M

**Q.** And the EC50 (SUDHL10 cells [4]; Homo sapiens, SU-DHL10, 3 h)?
**A.** 360 nM

**Q.** And the IC50 (SK-BR-3 cells)?
**A.** 3e-06 M

**Q.** What about the IC50 (SUDHL5 cells [5]) of the same compound?
**A.** 4.7e-07 M

**Q.** With `CCOC(=O)c1[nH]c2c(-c3c(CO)nn(C)c3CC)c(Cl)ccc2c1CCCOc1cccc2cc(F)ccc12` as the compound, how does the ring closure, isolated yield [7] read?
**A.** 82%

**Q.** What does the source list for `Cc1c2c(nn1C)COCCCCn1c(C(=O)O)c(CCCOc3cccc4ccccc34)c3ccc(Cl)c-2c31` (single isomer, unassigned; enantiomer 1) [Example 26, 4-chloro-2,3-dimethyl-7-[3-(naphthalen-1-yloxy)propyl]-2,10,11,12,13,15-hexahydropyrazolo-[4′,3′:9,10][1,6]oxazacycloundecino[8,7,6-hi]indole-8-carboxylic acid-N-ethylethanamine salt (Enantiomer 1)]?
**A.** IC50 (AMO-1 cells): 1e-06 M; IC50 (SUDHL10 cells [1]; [9]): 5e-07 M; EC50 (SUDHL5 cells [2]): 250 nM; IC50 (SNU-389 cells): 1.66e-06 M; IC50 (MV-4-11 cells): 1.81e-06 M; IC50 (HMC-1-8 cells): 2.9e-06 M; IC50 (A2058 cells; IC50, median): 1.49e-05 M; IC50 (SUDHL5 cells [3]; [10]): 4.6e-07 M; EC50 (SUDHL10 cells [4]): 410 nM; IC50 (SK-BR-3 cells): 3.3e-06 M; IC50 (DMS-114 cells): 1.76e-06 M; IC50 (SUDHL5 cells [5]): 5.8e-07 M; IC50 (NCI-H23 cells; IC50, median): 2.32e-06 M
